Experimental findings from ChEMBL document CHEMBL4390666, “Chemical manipulations on the 1,4-dioxane ring of 5-HT1A receptor agonists lead to antagonists endowed with antitumor activity in prostate cancer cells” (Eur J Med Chem, 2019) are described below.

Series [1] relates to DU-145. Description: Inhibition of 5-HT-stimulated human DU145 cells proliferation at 5 to 10 uM incubated for 48 hrs by SRB assay. The series is classed as functional, cell-based. (In SRB staining, fixed cells bind dye roughly in proportion to their protein.)
For series [2], the system named is PC-3. Put plainly: Inhibition of 5-HT-stimulated human PC3 cells proliferation at 5 to 10 uM incubated for 48 hrs by SRB assay. The series is classed as functional, cell-based.
A further series has as its target D(2) dopamine receptor (Homo sapiens, UniProt P14416). Description: Displacement of [3H]N-methylspiperone from human dopamine D2 receptor expressed in HEK293 cell membranes incubated for 1 hr by liquid scintillation counting.
For the next series, the target named is D(3) dopamine receptor (Homo sapiens, UniProt P35462). Put plainly: Displacement of [3H]N-methylspiperone from human dopamine D3 receptor expressed in HEK293 cell membranes incubated for 1 hr by liquid scintillation counting. (Displacement assays read how much labelled ligand stays bound in the presence of the test substance.)
D(3) dopamine receptor, sequence (P35462 whole entry): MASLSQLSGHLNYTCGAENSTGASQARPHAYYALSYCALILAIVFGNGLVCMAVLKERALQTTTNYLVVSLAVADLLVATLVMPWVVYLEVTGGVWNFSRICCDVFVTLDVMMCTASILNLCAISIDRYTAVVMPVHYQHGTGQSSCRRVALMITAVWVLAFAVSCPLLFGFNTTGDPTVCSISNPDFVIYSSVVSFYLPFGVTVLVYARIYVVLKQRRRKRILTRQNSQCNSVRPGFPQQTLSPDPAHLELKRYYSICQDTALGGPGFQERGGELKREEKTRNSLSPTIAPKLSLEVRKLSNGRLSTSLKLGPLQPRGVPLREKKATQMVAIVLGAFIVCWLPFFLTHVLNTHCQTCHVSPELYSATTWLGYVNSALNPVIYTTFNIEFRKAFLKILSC
Another series deals with T1, D(4) dopamine receptor (Homo sapiens, UniProt P21917).
T1 sequence (P21917 whole entry): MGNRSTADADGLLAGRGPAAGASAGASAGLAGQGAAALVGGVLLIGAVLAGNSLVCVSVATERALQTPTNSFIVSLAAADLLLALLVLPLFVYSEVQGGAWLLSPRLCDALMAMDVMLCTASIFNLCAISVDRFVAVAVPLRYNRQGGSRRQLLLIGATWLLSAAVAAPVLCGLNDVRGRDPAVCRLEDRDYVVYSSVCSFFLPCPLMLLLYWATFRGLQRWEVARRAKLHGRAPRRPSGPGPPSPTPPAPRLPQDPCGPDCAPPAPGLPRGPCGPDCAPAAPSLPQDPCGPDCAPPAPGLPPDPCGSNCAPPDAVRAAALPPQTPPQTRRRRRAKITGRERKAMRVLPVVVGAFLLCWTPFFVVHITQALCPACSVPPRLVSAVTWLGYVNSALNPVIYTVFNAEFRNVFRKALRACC
Put plainly: Displacement of [3H]N-methylspiperone from human dopamine D4 receptor expressed in HEK293 cell membranes incubated for 1 hr by liquid scintillation counting.

Series [3] has as its system PC-3. Description: Growth inhibition of human PC3 cells incubated for 48 hrs by SRB assay. The class given is functional. The note with it: PC-3, 48 h.
The subject of series [4] is DU-145. Put plainly: Growth inhibition of human DU145 cells incubated for 48 hrs by SRB assay. The series is classed as functional. As to conditions: DU-145, 48 h.
A short description of series [5]: (§1) Growth inhibition of human fibroblast cells incubated for 48 hrs by SRB assay. The series is classed as cell-based. The note with it: human fibroblast cells.
The test system of a further series is Fibroblast. The description is as §1. As to conditions: fibroblast, 48 h. The series is classed as cell-based.
Series [6] deals with PC-3. Put plainly: Inhibition of norepinephrine-stimulated human PC3 cells proliferation at 5 to 10 uM incubated for 48 hrs by SRB assay. The series is classed as functional, cell-based.
In series [7] the test system is DU-145. Description: Inhibition of norepinephrine-stimulated human DU145 cells proliferation at 5 to 10 uM incubated for 48 hrs by SRB assay. The class given is functional, cell-based.
Series [8] addresses T2, 5-hydroxytryptamine receptor 1A (Homo sapiens) (UniProt P08908).
T2 sequence (whole entry): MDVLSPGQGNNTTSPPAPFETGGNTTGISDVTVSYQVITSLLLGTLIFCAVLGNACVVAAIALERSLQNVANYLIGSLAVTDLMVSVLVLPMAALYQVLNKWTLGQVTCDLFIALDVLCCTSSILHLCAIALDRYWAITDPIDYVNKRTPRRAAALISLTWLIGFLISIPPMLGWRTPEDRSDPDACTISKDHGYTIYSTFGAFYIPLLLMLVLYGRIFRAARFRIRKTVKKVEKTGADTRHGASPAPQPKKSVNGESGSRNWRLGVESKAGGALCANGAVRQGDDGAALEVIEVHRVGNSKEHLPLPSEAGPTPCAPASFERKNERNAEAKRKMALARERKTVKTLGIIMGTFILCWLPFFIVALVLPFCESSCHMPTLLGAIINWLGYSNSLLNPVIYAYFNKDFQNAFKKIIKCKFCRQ
As to conditions: HeLa.
Description: Antagonist activity at cloned human 5-HT1A receptor transfected in human HeLa cell membranes preincubated for 20 mins followed by [35S]GTPgammaS addition and measured after 30 mins by liquid scintillation counting

The target in series [9] is T3, Alpha-1A adrenergic receptor (Homo sapiens, UniProt P35348).
T3 sequence (P35348 whole entry): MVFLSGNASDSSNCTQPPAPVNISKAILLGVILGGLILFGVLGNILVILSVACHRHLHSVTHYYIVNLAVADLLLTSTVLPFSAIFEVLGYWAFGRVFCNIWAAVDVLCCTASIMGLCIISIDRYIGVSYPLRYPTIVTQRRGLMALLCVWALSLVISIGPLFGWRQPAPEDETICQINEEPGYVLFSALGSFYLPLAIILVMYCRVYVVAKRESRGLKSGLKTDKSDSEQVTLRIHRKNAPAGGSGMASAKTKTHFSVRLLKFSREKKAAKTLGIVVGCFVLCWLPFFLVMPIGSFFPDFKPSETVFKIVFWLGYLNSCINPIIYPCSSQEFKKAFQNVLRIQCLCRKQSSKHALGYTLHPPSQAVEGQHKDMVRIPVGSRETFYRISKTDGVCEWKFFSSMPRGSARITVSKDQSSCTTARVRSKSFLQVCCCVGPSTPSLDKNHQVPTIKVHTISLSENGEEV
Put plainly: biochemical.
Description: Displacement of [3H]Prazosin from human recombinant alpha 1A adrenergic receptor expressed in CHO cells incubated for 30 mins by radioligand competition binding assay

Series [10] concerns the target T4, Alpha-1B adrenergic receptor (Homo sapiens, UniProt P35368).
T4 sequence (P35368 whole entry): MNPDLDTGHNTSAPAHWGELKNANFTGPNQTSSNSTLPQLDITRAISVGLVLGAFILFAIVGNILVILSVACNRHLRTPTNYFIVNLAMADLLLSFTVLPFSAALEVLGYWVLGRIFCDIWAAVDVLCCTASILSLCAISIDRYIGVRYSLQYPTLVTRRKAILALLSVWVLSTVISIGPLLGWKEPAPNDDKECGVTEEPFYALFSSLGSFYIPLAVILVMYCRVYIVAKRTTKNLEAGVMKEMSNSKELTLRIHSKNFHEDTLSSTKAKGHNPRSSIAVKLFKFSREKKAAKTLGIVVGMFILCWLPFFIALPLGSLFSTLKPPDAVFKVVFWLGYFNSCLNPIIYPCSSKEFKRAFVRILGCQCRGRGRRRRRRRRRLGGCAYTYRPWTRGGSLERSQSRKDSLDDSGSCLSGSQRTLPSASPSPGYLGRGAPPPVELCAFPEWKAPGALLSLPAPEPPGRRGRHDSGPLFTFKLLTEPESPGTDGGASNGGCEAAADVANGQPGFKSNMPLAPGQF
Description: biochemical.
Description: Displacement of [3H]Prazosin from human recombinant alpha 1B adrenergic receptor expressed in CHO cells incubated for 30 mins by radioligand competition binding assay

Series [11] has as its target T5, Alpha-1D adrenergic receptor (Homo sapiens, UniProt P25100).
T5 sequence (P25100 whole entry): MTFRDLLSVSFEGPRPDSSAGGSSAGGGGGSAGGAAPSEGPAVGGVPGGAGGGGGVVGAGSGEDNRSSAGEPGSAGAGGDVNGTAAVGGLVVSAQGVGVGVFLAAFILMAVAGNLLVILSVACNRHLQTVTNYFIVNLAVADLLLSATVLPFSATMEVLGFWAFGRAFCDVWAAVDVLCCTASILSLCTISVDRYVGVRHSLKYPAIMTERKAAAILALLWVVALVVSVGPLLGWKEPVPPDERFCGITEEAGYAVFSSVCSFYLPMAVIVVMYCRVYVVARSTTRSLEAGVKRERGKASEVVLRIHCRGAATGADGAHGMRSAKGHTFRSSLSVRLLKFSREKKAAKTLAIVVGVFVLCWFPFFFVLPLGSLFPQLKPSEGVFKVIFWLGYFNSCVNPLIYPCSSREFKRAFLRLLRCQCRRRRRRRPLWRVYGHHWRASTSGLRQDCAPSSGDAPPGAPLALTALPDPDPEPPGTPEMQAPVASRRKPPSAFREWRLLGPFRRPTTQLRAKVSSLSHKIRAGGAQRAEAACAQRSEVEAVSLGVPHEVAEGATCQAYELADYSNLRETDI
Put plainly: biochemical.
Description: Displacement of [3H]Prazosin from human recombinant alpha 1D adrenergic receptor expressed in CHO cells incubated for 30 mins by radioligand competition binding assay

The target in series [12] is T6, 5-hydroxytryptamine receptor 1A (Homo sapiens, UniProt P08908).
T6 sequence (P08908 whole entry): T2 sequence (whole entry)
Put plainly: biochemical.

Setting [13] is: read-out: LC50 (the source's name).

Broadly, the Ki is the dissociation constant of the complex between target and ligand, obtained from inhibition or displacement. Read a high Ki as a looser hold on the target. The term GI50 denotes the concentration at which growth is held to half of that of the control. Higher therefore signals lower sensitivity of the cells. A word on the TGI: it is the concentration giving total growth inhibition. For orientation: LC50 means the concentration lethal to half of the exposed cells or organisms. A lower LC50 goes with a more lethal substance. A word on the pKb: it is the Kb on a negative log10 scale, so that one unit is a factor of ten. Lower therefore signals a large Kb.

Activity calls are given as the source filed them. The rule behind the calls is not given here.

D(2) dopamine receptor, sequence (P14416 whole entry): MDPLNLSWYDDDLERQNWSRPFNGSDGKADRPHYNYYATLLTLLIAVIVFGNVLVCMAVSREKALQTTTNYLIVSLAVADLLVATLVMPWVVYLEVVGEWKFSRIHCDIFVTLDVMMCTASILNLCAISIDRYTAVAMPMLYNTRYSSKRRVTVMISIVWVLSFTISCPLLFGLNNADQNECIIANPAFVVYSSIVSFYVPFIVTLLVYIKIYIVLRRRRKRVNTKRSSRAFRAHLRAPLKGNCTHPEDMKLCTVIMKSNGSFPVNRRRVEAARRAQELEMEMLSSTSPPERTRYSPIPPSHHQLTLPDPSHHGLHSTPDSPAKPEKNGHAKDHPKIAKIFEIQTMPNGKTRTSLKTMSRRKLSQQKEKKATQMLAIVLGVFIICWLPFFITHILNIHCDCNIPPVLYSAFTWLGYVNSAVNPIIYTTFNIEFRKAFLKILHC

`COc1ccccc1OCCNCC1OCCOC1(c1ccccc1)c1ccccc1` (stereo unspecified): the inhibition result in the series on DU-145 [1], in the series on PC-3 [2], with PC-3 [6] and in the series with DU-145 [7] was “Active” throughout. For the same compound, the inhibition constant (Ki) is 0.324 µM on D(2) dopamine receptor; 0.537 µM on D(3) dopamine receptor; 0.275 µM on D(4) dopamine receptor; more than 1 µM in [9]; 0.0676 µM in series [10]; 0.00741 µM in series [11]. Further, affinity in series [12] was put at a Ki of 0.00398 µM. In addition, the concentration for 50% growth inhibition (GI50) was found to be 13 µM in the series on PC-3 [3] and 18 µM in the series on DU-145 [4]. In addition, the concentration for total growth inhibition (TGI) in the series with PC-3 [3] turned out to be 29 µM; with DU-145 [4], 32 µM; with Fibroblast, 50.2 µM. Further, the CC50 in the series with PC-3 [3] (setting [13]) was 68 µM; in the series with DU-145 [4] (setting [13]) it was 55 µM. In addition, in [5], the GI50 at 48 h came to 30.5 µM. In the series with Fibroblast, this compound showed a median lethal concentration (LC50) of 99.6 µM. The pKb in series [8] came to 8.5.
